From ChEMBL document CHEMBL5726990, “Thiazolidinones as cellular anandamide uptake inhibitors and their use in the treatment of psychiatric or neurological disorders and inflammation, in particular neuroinflammation” (2019)

Experiment: [3H]-AEA Cellular Uptake: Screening for AEA cellular uptake inhibition was performed in a semi-automated procedure: Pipetting and washing steps were performed by a Biomek3000 laboratory workstation. First, required amounts of U937 cells were centrifuged at 100×g for 5 min and resuspended in RPMI (37° C.) to a final concentration of 2×10^6 cells/mL. Then, 250 μL of cell suspension (0.5×10^6 cells per sample) were transferred into AquaSil™ silanized glass vials (Chromacol 1.1-MTV) in 96-well format. After addition of 5 μL vehicle (DMSO) or compounds the cells were incubated at 37° C. for 15 min. As positive controls OMDM-2 and UCM707 were used at 10 μM in each run. The ETI-T compounds were measured at up to 7 concentrations in triplicates from 100 pM-100 μM. After pre-incubation, a mixture of 0.5 nM[ethanolamine-1-3H]-AEA, (60 Ci/mmol) and 99.5 nM of cold AEA (final 100 nM) was added and samples were incubated at 37° C. for another 15 min. The reaction was stopped by rapid filtration over UniFilter-96 GF/C filters (PerkinElmer) pre-soaked with PBS 0.25% BSA. Cells were washed three times with 100 μL ice-cold PBS buffer containing 1% fatty acid free BSA. After drying, 45 μL MicroScint 20 scintillation cocktail (PerkinElmer, Waltham, Mass., US) was added to the wells and the plate was sealed. Radioactivity was measured by liquid scintillation counting on a PerkinElmer Wallac Trilux MicroBeta 1450 during 2 min. Non-specific binding of [3H]AEA (100 nM) to the glass vials was never higher than 10%. IC50 values were calculated by GraphPad® by non-linear regression using the built-in log(inhibitor) vs. response-variable slope (four parameters) function.
Conditions: U-937

## CC/N=C1\S/C(=C\c2ccc(O)c(OCC)c2)C(=O)N1CC
  IC50: 145 nM

## O=C1/C(=C/c2ccc(O)cc2)S/C(=N\c2ccccc2)N1OC1=CC=CC1
  IC50: 434 nM

## CCCN1C(=O)/C(=C\c2ccc(C(C)C)cc2)S/C1=N\c1ccccc1
  IC50: 355 nM
